Assay: recombinant UMI read abundance after kanamycin selection (control-corrected) (log10(CPM+1)); higher = more efficient recombination; extreme values may be limits of the assay; sequences stand for … in AGTGCAGAGAAAATCGGCCAGTTTTCTCTGCCTGCAGTCCGCATGCCGTGGGACCCCTTGGGTTCTAACCTGTTGCCTAGATTTATGCAGCGGACTGCCTTTCTCCCAAAGTGATAAACCGG…AGGTTGGTTTCACT; site = the 11-nt donor
In short: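 Under IPTG (0.07 mM) plus kanamycin, or without selection, Escherichia coli carrying a UMI-tagged donor and donor-binding-loop pair library and a target plasmid for the IS621 bridge recombinase were plated in two replicates. Recombinant UMIs were PCR-amplified across the donor–target junction and sequenced. Counts were converted to CPM, averaged over replicates, scaled by control-derived factors and reported as log10(CPM+1).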
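Note: IS621 bridge recombinase in Escherichia coli cells against a fixed T5 target plasmid.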

In order of rising “recombinant UMI read abundance (log10)” value:
1. CCCATATCATGGACCGGTTTTCCCGGTAATCCGTATTTGTA (site CCCATATCTGA)  0
2. CCCGGTGCATGGACCGGTTTTCCCGGTAATCCGTATTTGCA (site CCCGGTTCTTG)  0
3. ACAGTATCATGGACCGGTTTTCCCGGTAATCCGTATTTGCA (site ACAGTACCTTG)  0
4. AAATGGCCATGGACCGGTTTTCCCGGTAATCCGTATTTGCA (site TAATGGCCTTG)  0
5. ATCTAAACATGGACCGGTTTTCCCGGTAATCCGTATTTGAC (site ATCTAGACTGT)  0
6. CCGTTTCCATGGACCGGTTTTCCCGGTAATCCGTATTTGCT (site CCGTTTCCTAG)  0
7. AGCCTAGCATGGACCGGTTTTCCCGGTAATCCGTATTTGTT (site AGCCTAGCTAC)  0
8. CGGACATCATGGACCGGTTTTCCCGGTAATCCGTATTTGTT (site CGGACATCTAT)  0
9. CCCGGTACATGGACCGGTTTTCCCGGTAATCCGTATTTGCA (site CCCGGTCCTTG)  0
10. TTCAGTGCATGGACCGGTTTTCCCGGTAATCCGTATTTGGC (site TTCAGTGCTGC)  0
11. GTGCATTCATGGACCGGTTTTCCCGGTAATCCGTATTTGGT (site GTGCATGCTAC)  0
12. CGATTTTCATGGACCGGTTTTCCCGGTAATCCGTATTTGCT (site CGATCATCTAG)  0
13. CACGGTCCATGGACCGGTTTTCCCGGTAATCCGTATTTGCA (site CGCGGTCCTTG)  0
14. CTCAGCCCATGGACCGGTTTTCCCGGTAATCCGTATTTGCC (site CTCAGCCCTGG)  0
15. GTTACTGCATGGACCGGTTTTCCCGGTAATCCGTATTTGCC (site GCTACTGCTGG)  0
16. TGTACACCATGGACCGGTTTTCCCGGTAATCCGTATTTGTC (site TGTACACCTGA)  0
17. CAATTCCCATGGACCGGTTTTCCCGGTAATCCGTATTTGCC (site CAATTCCCTTG)  0
18. GGCAATACATGGACCGGTTTTCCCGGTAATCCGTATTTGAA (site GGCAATGCTTT)  0
19. GGCAATCCATGGACCGGTTTTCCCGGTAATCCGTATTTGAA (site GGCAATCCTAT)  0
20. ATGCAGCCATGGACCGGTTTTCCCGGTAATCCGTATTTGAG (site ATGCAGCCTCT)  0.00247
21. ACAGTATCATGGACCGGTTTTCCCGGTAATCCGTATTTGCA (site ACTGTATCTTT)  0.00405
22. AACCCTCCATGGACCGGTTTTCCCGGTAATCCGTATTTGAT (site AACCATCCTAT)  0.00728
23. GATTGGACATGGACCGGTTTTCCCGGTAATCCGTATTTGAC (site GATTGGACTCT)  0.00872
24. GCTTGCCCATGGACCGGTTTTCCCGGTAATCCGTATTTGAT (site GCTTGACCTAT)  0.0101
25. AGGTTCCCATGGACCGGTTTTCCCGGTAATCCGTATTTGTG (site AAGTTCCCTCA)  0.0108
26. TTATGCACATGGACCGGTTTTCCCGGTAATCCGTATTTGTA (site ATATGCACTTA)  0.0128
27. AGTTCCCCATGGACCGGTTTTCCCGGTAATCCGTATTTGTA (site GGTTCCCCTTA)  0.013
28. GTAGTCGCATGGACCGGTTTTCCCGGTAATCCGTATTTGCG (site GAAGTCGCTCG)  0.0146
29. ATGTAGGCATGGACCGGTTTTCCCGGTAATCCGTATTTGGT (site ATGTAGGCTTC)  0.0176
30. AATGTAACATGGACCGGTTTTCCCGGTAATCCGTATTTGCT (site AATGTAACTAT)  0.0618
31. TCCTTCTCATGGACCGGTTTTCCCGGTAATCCGTATTTGGG (site GCCTTCTCTCC)  0.104
32. TATTTGGCATGGACCGGTTTTCCCGGTAATCCGTATTTGTT (site TATTTGGCTAA)  0.17
33. CGGAAGCCATGGACCGGTTTTCCCGGTAATCCGTATTTGTT (site CGGAAGCCTAA)  0.218
34. TGTTAGGCATGGACCGGTTTTCCCGGTAATCCGTATTTGGT (site TGCTAGGCTAC)  0.304
35. TAGGATTCATGGACCGGTTTTCCCGGTAATCCGTATTTGCG (site TAGGAGTCTCG)  0.435
36. TATTAGGCATGGACCGGTTTTCCCGGTAATCCGTATTTGTG (site TATTAGGCTCA)  0.459
37. CATGGCACATGGACCGGTTTTCCCGGTAATCCGTATTTGGA (site CATGGCACTTC)  0.46
38. GTAGTCGCATGGACCGGTTTTCCCGGTAATCCGTATTTGCG (site GTAGTCGCTCT)  0.471
39. GTGGTTCCATGGACCGGTTTTCCCGGTAATCCGTATTTGGT (site GTAGTTCCTAC)  0.553
40. GTAGTCGCATGGACCGGTTTTCCCGGTAATCCGTATTTGCG (site GTAGTCCCTCG)  0.553
41. GGGGTAACATGGACCGGTTTTCCCGGTAATCCGTATTTGGG (site GGGGTAACTCC)  0.597
42. TGCAATCCATGGACCGGTTTTCCCGGTAATCCGTATTTGTT (site TGCAATCCTAA)  0.672
43. ACCGTCTCATGGACCGGTTTTCCCGGTAATCCGTATTTGCA (site ACAGTATCTTG)  0.902
44. GTAGATTCATGGACCGGTTTTCCCGGTAATCCGTATTTGTT (site GGAGATTCTAA)  0.98
45. GGATATACATGGACCGGTTTTCCCGGTAATCCGTATTTGCC (site GGATACACTGG)  0.982
46. GTTCTATCATGGACCGGTTTTCCCGGTAATCCGTATTTGTG (site GTTCTATCTCA)  1.02
47. AGCCTTTCATGGACCGGTTTTCCCGGTAATCCGTATTTGCC (site AGCCTTTCTGG)  1.05
48. CTCGAAACATGGACCGGTTTTCCCGGTAATCCGTATTTGTG (site CTCGAAACTCA)  1.06
49. GGCCGTGCATGGACCGGTTTTCCCGGTAATCCGTATTTGCC (site GGCCGTGCTGG)  1.16
50. ATCTACACATGGACCGGTTTTCCCGGTAATCCGTATTTGAC (site ATCTAAACTGT)  1.21
51. GGGAATACATGGACCGGTTTTCCCGGTAATCCGTATTTGTT (site GGGAATACTAA)  1.29
52. CGGAGTCCATGGACCGGTTTTCCCGGTAATCCGTATTTGTC (site CGGAGTCCTGA)  1.34
53. CATGTGGCATGGACCGGTTTTCCCGGTAATCCGTATTTGCT (site CATGTGGCTAG)  1.39
54. ACAGTATCATGGACCGGTTTTCCCGGTAATCCGTATTTGCA (site ACCGTCTCTTG)  1.39
55. TCAGAGACATGGACCGGTTTTCCCGGTAATCCGTATTTGTG (site TCAGAGACTCG)  1.44
56. CCAGTGTCATGGACCGGTTTTCCCGGTAATCCGTATTTGCA (site CCAGTGTCTTG)  1.5
57. AGAGGATCATGGACCGGTTTTCCCGGTAATCCGTATTTGCA (site ACAGTATCTTG)  1.59
58. TATTGGACATGGACCGGTTTTCCCGGTAATCCGTATTTGAC (site TATTGGACTGT)  1.68
59. TCGTTTACATGGACCGGTTTTCCCGGTAATCCGTATTTGCT (site TCGTTTACTAG)  1.68
60. CTATTGGCATGGACCGGTTTTCCCGGTAATCCGTATTTGTA (site CTATTGGCTTA)  1.84
61. CGCTTAGCATGGACCGGTTTTCCCGGTAATCCGTATTTGTA (site CGCTTAGCTTA)  1.88
62. CGAGTATCATGGACCGGTTTTCCCGGTAATCCGTATTTGAC (site CCAGTATCTGT)  1.99
63. GAGTTGTCATGGACCGGTTTTCCCGGTAATCCGTATTTGTT (site GAGTTGTCTAA)  2.01
64. AATGTAACATGGACCGGTTTTCCCGGTAATCCGTATTTGCT (site ATTGTAACTAG)  2.07
65. CGGAATACATGGACCGGTTTTCCCGGTAATCCGTATTTGAT (site CGGAATACTAT)  2.16
66. GGTGGTGCATGGACCGGTTTTCCCGGTAATCCGTATTTGAC (site GGTGGTGCTGT)  2.18
67. CTCTACACATGGACCGGTTTTCCCGGTAATCCGTATTTGAT (site CTCTACACTAT)  2.19
68. ACATGCGCATGGACCGGTTTTCCCGGTAATCCGTATTTGAT (site ACATGCGCTAT)  2.22
69. GTGCATGCATGGACCGGTTTTCCCGGTAATCCGTATTTGAT (site GTGCATGCTAT)  2.34
70. ACAGTATCATGGACCGGTTTTCCCGGTAATCCGTATTTGCA (site GCAGTATCTTG)  2.41
71. GTTCGAGCATGGACCGGTTTTCCCGGTAATCCGTATTTGCA (site GTTCGAGCTTG)  2.44
72. ACACATTCATGGACCGGTTTTCCCGGTAATCCGTATTTGAC (site ACACATTCTGT)  2.74
73. ATGTGTGCATGGACCGGTTTTCCCGGTAATCCGTATTTGAC (site ATGTGTGCTGT)  2.78
74. GTAATCTCATGGACCGGTTTTCCCGGTAATCCGTATTTGTA (site GTAATCTCTTA)  2.83
75. TAGGTATCATGGACCGGTTTTCCCGGTAATCCGTATTTGCG (site TAGGTATCTCG)  2.92
